# Laboratory results taken from patent EP0189679A1, “Novel crystalline form of 1-benzhydryl-4-allylpiperazine dihydrochloride and method for the production thereof” (SO "PHARMACHIM", priority 1984, dated 1986).
# What was measured:
# [1] = Solubility profile / rate of dissolution of pulverous specimens in water; type: physicochemical; conditions: 25°C
# Method: The respective solubilities of the three crystalline modifications have also been studied. The rate of dissolution of pulverous specimens in water was determined in the following manner: a finely ground powder formed from the crystalline form under study in a quantity twice as great as necessary to produce a saturated solution in water is placed in a receptacle containing 100 ml of distilled water. The suspension is stirred using a magnetic agitator (600 r.p.m.) at a temperature of 25°C. At predetermined time intervals, samples are taken and, after filtering through a Milipor filter ([…]) they are diluted to the necessary volume for performing a quantitative determination. For this purpose, an absorption maximum at 250 nm is used.
# [2] = Initial rate of dissolution of pressed discs in 0.1 N hydrochloric acid; type: physicochemical; conditions: pressed disc 200 mg substance + 100 mg polyvinylchloride, 100 ml 0.1 N hydrochloric acid, 25°C, linear part between first and fifth minutes
# Method: In Table 4 which follows, there are compared the rates of dissolution of the. three crystalline forms. Investigations were carried out with pressed discs made up of 200 mg of the test substance and 100 mg of polyvinylchloride pressed at a pressure of 10 tonnes for 5 minutes in a plane around the disc using a pill making matrix with a diameter of 13 mm. The discs thus obtained are immersed by means of a special holding device in 100 ml of 0.1 N hydrochloric acid solution. Stirring was carried out by means of an electromagnetic agitator. The testing temperature employed was 25°C. The initial rates of dissolution are determined from the dissolution curves for the pressed discs, using the linear part between the first and fifth minutes. Comparison of data for the initial rate of dissolution of the three crystalline forms indicate that crystal form "A" has an initial rate of dissolution which is 3 to 4 times greater than that of the other forms.
# [3] = Hygroscopicity study of ground samples in a humidity chamber; type: physicochemical; conditions: 90% humidity, 25°C, period of 30 days
# Method: Hygroscopicity studies have been carried out by placing samples of the three crystalline forms with the same particle size resulting from grinding of samples of the three crystalline forms in a vibratory mill. The studies take place in a chamber with 90% humidity and at a temperature of 25°C. At intervals, samples are taken in order to determine their water content and their crystalline structure by means of the methods described hereinabove. […] They are not hygroscopic and are physically stable under the test conditions..
# [4] = Stability study of the solid forms under ambient storage conditions in light-permeable glass jars; type: physicochemical; conditions: ambient storage in glass jars permitting passage of light; over one year and after three years
# Source text: More exhaustive stability studies have been performed under ambient storage conditions in glass jars which permit the passage of light therethrough. […] The three crystalline forms are chemically and physically stable under normal storage conditions.
# [5] = Stability in aqueous solution (injectible compositions) of different crystalline forms; type: physicochemical; conditions: dihydrochloride; for Content of active substance in the solution in %, In storing 1 year: stored 1 year; for Content of active substance in the solution in %, In storing 3 years: stored 3 years
# Source text: Table 3 indicates comparative data concerning the stability of injectible forms of pharmaceutical compositions containing either crystalline form "A" according to the present invention and form "B" (aligerone prepared according to the method described in the aforementioned references to Zikolova and Ninov).
# [6] = tested on: blood vessels of the brain; conditions: from Zikolova and Ninov and Drugs of the Future 1980, 5(1); cited from earlier work
# [7] = powder in 100 ml distilled water, 600 r.p.m.
smiles,measurement,setting,value
"C=CCN1CCN(C(c2ccccc2)c2ccccc2)CC1.Cl.Cl.O.O [Crystalline hydrate, 1-benzhydryl-4-allylpiperazine dihydrochloride dihydrate, reference compound]",time until solubility reaches a constant value,[1]; [7],60 min
same,Initial rate of dissolving,[2],0.333 mg/mL/min
"C=CCN1CCN(C(c2ccccc2)c2ccccc2)CC1.Cl.Cl [Form ""A"", 1-benzhydryl-4-allyl-piperazine dihydrochloride]",hygroscopicity (water absorption),[3],non-hygroscopic
same,chemical and physical stability on storage,[4],stable on storage under normal conditions
same,"Content of active substance in the solution in %, Initial concentration",[5]; listed as A,1.251%
same,"Content of active substance in the solution in %, In storing 1 year",[5]; listed as A,1.250%
same,"Content of active substance in the solution in %, In storing 3 years",[5]; listed as A,1.198%
same,time to attain maximum solubility,[1]; [7],≤ 2 min
same,time until solubility reaches a constant value,"[1]; powder in 100 ml distilled water, 600 r.p.m., listed as form ""A"", dihydrochloride",10 min
same,solubility in comparison with the other crystalline forms,"[1]; water, compared with anhydrous form ""B"" and the crystalline hydrate",higher equilibrium solubility
"C=CCN1CCN(C(c2ccccc2)c2ccccc2)CC1.Cl.Cl [Form ""B"", 1-benzhydryl-4-allylpiperazine dihydrochloride]","Content of active substance in the solution in %, Initial concentration",[5]; listed as B,1.255%
same,"Content of active substance in the solution in %, In storing 1 year",[5]; listed as B,1.105%
same,"Content of active substance in the solution in %, In storing 3 years",[5]; listed as B,0.925%
same,time until solubility reaches a constant value,"[1]; powder in 100 ml distilled water, 600 r.p.m., listed as form ""B"", dihydrochloride",60 min
same,Initial rate of dissolving,"[2]; listed as B, dihydrochloride",0.467 mg/mL/min
"C=CCN1CCN(C(c2ccccc2)c2ccccc2)CC1.Cl.Cl [aligerone, 1-benzhydryl-4-allyl-piperazine dihydrochloride]",effect on blood circulation and oxygen concentration of the brain compared with cinnarizine,[6],stronger than that of cinnarizine
